Source: patent US10363257B2 (ZENITH EPIGENETICS LTD., priority 2013, dated 2019)

Columns and labels:
human AML MV-4-11 cells = assay: Inhibition of cell proliferation in MV4-11 cells (CellTiter Aqueous One); assay type: cell-based; details: for IC50: MV4-11, 72 h; for Cell Proliferation activity: 72 h
Method: MV4-11 cells: 96-well plates were seeded with 5×10^4 cells per well of exponentially growing human AML MV-4-11 (CRL-9591) cells and immediately treated with two-fold dilutions of test compounds, ranging from 30 μM to 0.2 μM. Triplicate wells were used for each concentration, as well as a media only and three DMSO control wells. The cells and compounds were incubated at 37° C., 5% CO2 for 72 h before adding 20 μL of the CellTiter Aqueous One Solution (Promega) to each well and incubating at 37° C., 5% CO2 for an additional 3-4 h. The absorbance was taken at 490 nm in a spectrophotometer and the percentage of proliferation relative to DMSO-treated cells was calculated after correction from the blank well. IC50 were calculated using the GraphPad Prism software.

[1] = molecular target: T1, Brd4 bromodomain 1 (BRD4(1)) (Homo sapiens, UniProt O60885); assay: Inhibition of tetra-acetylated histone H4 binding to Brd4 bromodomain 1 (TR-FRET); details: tetra-acetylated histone H4 peptide, first bromodomain of Brd4
T1 construct: made in house; host or cells: E. coli BL21(DE3)
Method: Proteins were cloned and overexpressed with a N-terminal 6× His tag, then purified by nickel affinity followed by size exclusion chromatography. Briefly, E.coli BL21(DE3) cells were transformed with a recombinant expression vector encoding N-terminally Nickel affinity tagged bromodomains from Brd2, Brd3, Brd4. Cell cultures were incubated at 37° C. with shaking to the appropriate density and induced overnight with IPTG. The supernatant of lysed cells was loaded onto Ni-IDA column for purification. Eluted protein was pooled, concentrated and further purified by size exclusion chromatography. Fractions representing monomeric protein were pooled, concentrated, aliquoted, and frozen at −80° C. for use in subsequent experiments.
Binding of tetra-acetylated histone H4 and BET bromodomains was confirmed by a Time Resolved Fluorescence Resonance Energy Transfer (TR-FRET) method. N-terminally His-tagged bromodomains (200 nM) and biotinylated tetra-acetylated histone H4 peptide (25-50 nM, Millipore) were incubated in the presence of Europium Cryptate-labeled streptavidin (Cisbio Cat. #610SAKLB) and XL665-labeled monoclonal anti-His antibody (Cisbio Cat. #61HISXLB) in a white 96 well microtiter plate (Greiner). For inhibition assays, serially diluted test compound was added to these reactions in a 0.2% final concentration of DMSO. Final buffer concentrations were 30 mM HEPES pH 7.4, 30 mM NaCl, 0.3 mM CHAPS, 20 mM phosphate pH 7.0, 320 mM KF, 0.08% BSA). After a 2-h incubation at room temperature, the fluorescence by FRET was measured at 665 and 620 nm by a SynergyH4 plate reader (Biotek). The binding inhibitory activity was shown by a decrease in 665 nm fluorescence relative to 620 nm. IC50 values were determined from a dose response curve.

c-myc = assay: Inhibition of c-myc expression (mRNA, real-time PCR) in MV4-11 cells; assay type: cell-based; details: Human AML MV4-11 cells, 3 h, cMYC mRNA
Method: MV4-11 cells (CRL-9591) were plated at a density of 2.5×10^4 cells per well in 96 well U-bottom plates and treated with increasing concentrations of test compound or DMSO (0.1%) in IMDM media containing 10% FBS and penicillin/streptomycin, and incubated for 3 h at 37° C. Triplicate wells were used for each concentration. Cells were pelleted by centrifugation and harvested using the mRNA Catcher PLUS kit according to manufacturer's instructions. The eluted mRNA isolated was then used in a one-step quantitative real-time PCR reaction, using components of the RNA UltraSense™ One-Step Kit (Life Technologies) together with Applied Biosystems TaqMan® primer-probes for cMYC and Cyclophilin. Real-time PCR plates were run on a VIaTM7 real time PCR machine (Applied Biosystems), data was analyzed, normalizing the Ct values for cMYC to an internal control, prior to determining the fold expression of each sample, relative to the control.

Compound | IC50 (human AML MV-4-11 cells) [nM] | IC50 [1] [nM] | IC50 (c-myc) [nM] | Cell Proliferation activity (human AML MV-4-11 cells)
Cc1noc(C)c1-c1ccc2[nH]cc(Nc3cccc(C#N)c3)c2n1 [Example Compound 57, 3-((5-(3,5-dimethylisoxazol-4-yl)-1H-pyrrolo[3,2-b]pyridin-3-yl)amino)benzonitrile] | 3000 to 30000 | 3000 to 30000 |  | 
CCOc1nc2ncc(-c3c(C)noc3C)cc2n1Cc1ccccc1 [Example Compound 59, 4-(1-benzyl-2-ethoxy-1H-imidazo[4,5-b]pyridin-6-yl)-3,5-dimethylisoxazole] |  | 300 to 3000 |  | Not active
CC(=O)Oc1nc2ncn(Cc3ccc(F)cc3)c2cc1-c1c(C)noc1C [compound 80, 6-(3,5-dimethylisoxazol-4-yl)-1-(4-fluorobenzyl)-1H-imidazo[4,5-b]pyridin-5-yl acetate] |  | 300 to 3000 |  | Not active
Cc1noc(C)c1-c1cc(N)c2[nH]c(=O)n(Cc3ccc(Cl)cc3)c2c1 [compound 90, 4-amino-1-(4-chlorobenzyl)-6-(3,5-dimethylisoxazol-4-yl)-1H-benzo[d]imidazol-2(3H)-one] | 300 to 3000 | ≤ 300 | ≤ 300 | 
COc1ccc(Cn2c(=O)[nH]c3c(N)cc(-c4c(C)noc4C)cc32)cc1 [compound 104, 4-amino-6-(3,5-dimethylisoxazol-4-yl)-1-(4-methoxybenzyl)-1H-benzo[d]imidazol-2(3H)-one] | 300 to 3000 | ≤ 300 | 300 to 3000 | 
Cc1noc(C)c1-c1cnc2[nH]c(=O)n(Cc3ccc(Cl)s3)c2c1 [compound 124, 1-((5-chlorothiophen-2-yl)methyl)-6-(3,5-dimethylisoxazol-4-yl)-1H-imidazo[4,5-b]pyridin-2(3H)-one] | 300 to 3000 | ≤ 300 | 300 to 3000 | 
CCc1nc2ncc(-c3c(C)noc3C)cc2n1Cc1ccccc1 [compound 128, 4-(1-benzyl-2-ethyl-1H-imidazo[4,5-b]pyridin-6-yl)-3,5-dimethylisoxazole] | 300 to 3000 | ≤ 300 | 300 to 3000 | 
CC(=O)Nc1cc(-c2c(C)noc2C)cc2c1nc(N1CCC1)n2Cc1ccccc1 [compound 130, N-(2-(azetidin-1-yl)-1-benzyl-6-(3,5-dimethylisoxazol-4-yl)-1H-benzo[d]imidazol-4-yl)acetamide] | 300 to 3000 | ≤ 300 | 300 to 3000 | 
Cc1noc(C)c1-c1cnc2nc(C3CC3)n(Cc3ccccc3)c2c1 [compound 138, 4-(1-benzyl-2-cyclopropyl-1H-imidazo[4,5-b]pyridin-6-yl)-3,5-dimethylisoxazole] | 300 to 3000 | ≤ 300 | ≤ 300 | 
Cc1noc(C)c1-c1cc([N+](=O)[O-])c2[nH]c(=O)n(CC3CC3)c2c1 [compound 145, 1-(cyclopropylmethyl)-6-(3,5-dimethylisoxazol-4-yl)-4-nitro-1H-benzo[d]imidazol-2(3H)-one] | 3000 to 30000 | ≤ 300 | 3000 to 30000 | 
CCNc1nc2c([N+](=O)[O-])cc(-c3c(C)noc3C)cc2n1CC1CC1 [compound 159, 1-(cyclopropylmethyl)-6-(3,5-dimethylisoxazol-4-yl)-N-ethyl-4-nitro-1H-benzo[d]imidazol-2-amine] | 300 to 3000 | ≤ 300 | ≤ 300 | 
Cc1noc(C)c1-c1cc(N)c2[nH]c(=O)n(CC3CC3)c2c1 [compound 161, 4-amino-1-(cyclopropylmethyl)-6-(3,5-dimethylisoxazol-4-yl)-1H-benzo[d]imidazol-2(3H)-one] | 300 to 3000 | ≤ 300 |  | 
Cc1noc(C)c1-c1cnc2nc(N3CCN(C)CC3)n(Cc3ccccc3)c2c1 [compound 165, 4-(1-benzyl-2-(4-methylpiperazin-1-yl)-1H-imidazo[4,5-b]pyridin-6-yl)-3,5-dimethylisoxazole] | 300 to 3000 | ≤ 300 | 300 to 3000 | 
COCCNc1nc2ncc(-c3c(C)noc3C)cc2n1Cc1ccccc1 [compound 167, 1-benzyl-6-(3,5-dimethylisoxazol-4-yl)-N-(2-methoxyethyl)-1H-imidazo[4,5-b]pyridin-2-amine] | ≤ 300 | ≤ 300 | ≤ 300 | 
Cc1nc2ncc(-c3cnnn3C)cc2n1Cc1ccccc1 [compound 206, 1-benzyl-2-methyl-6-(1-methyl-1H-1,2,3-triazol-5-yl)-1H-imidazo[4,5-b]pyridine] | 3000 to 30000 | ≤ 300 |  | 

Continued, in another order:

IC50 (human AML MV-4-11 cells) [nM] | IC50 [1] [nM] | IC50 (c-myc) [nM] | Compound | Cell Proliferation activity (human AML MV-4-11 cells)
300 to 3000 | ≤ 300 |  | CCNc1nc2ncc(-c3c(C)noc3C)cc2n1Cc1ccccc1 [compound 107, 1-benzyl-6-(3,5-dimethylisoxazol-4-yl)-N-ethyl-1H-imidazo[4,5-b]pyridin-2-amine] | 
300 to 3000 | ≤ 300 | 300 to 3000 | Cc1noc(C)c1-c1cc([N+](=O)[O-])c2[nH]c(=O)n(C(C)c3ccccc3)c2c1 (centres unmarked) [compound 110, 6-(3,5-dimethylisoxazol-4-yl)-4-nitro-1-(1-phenylethyl)-1H-benzo[d]imidazol-2(3H)-one] | 
300 to 3000 | ≤ 300 | 300 to 3000 | CCOc1nc2c(NC(C)=O)cc(-c3c(C)noc3C)cc2n1Cc1ccccc1 [compound 120, N-(1-benzyl-6-(3,5-dimethylisoxazol-4-yl)-2-ethoxy-1H-benzo[d]imidazol-4-yl)acetamide] | 
300 to 3000 | ≤ 300 | ≤ 300 | Cc1noc(C)c1-c1cc([N+](=O)[O-])c2nc(C)n([C@@H](C)c3ccccc3)c2c1 [compound 125, (S)-3,5-dimethyl-4-(2-methyl-4-nitro-1-(1-phenylethyl)-1H-benzo[d]imidazol-6-yl)isoxazole] | 
300 to 3000 | ≤ 300 | ≤ 300 | Cc1noc(C)c1-c1cc([N+](=O)[O-])c2nc(C)n([C@H](C)c3ccccc3)c2c1 [compound 126, (R)-3,5-dimethyl-4-(2-methyl-4-nitro-1-(1-phenylethyl)-1H-benzo[d]imidazol-6-yl)isoxazole] | 
≤ 300 | ≤ 300 | ≤ 300 | CCNc1nc2c(N)cc(-c3c(C)noc3C)cc2n1C(C)c1ccccc1 (centres unmarked) [compound 134, 6-(3,5-dimethylisoxazol-4-yl)-N2-ethyl-1-(1-phenylethyl)-1H-benzo[d]imidazole-2,4-diamine] | 
≤ 300 | ≤ 300 | ≤ 300 | COCCNc1nc2c(N)cc(-c3c(C)noc3C)cc2n1Cc1ccccc1 [compound 139, 1-benzyl-6-(3,5-dimethylisoxazol-4-yl)-N2-(2-methoxyethyl)-1H-benzo[d]imidazole-2,4-diamine] | 
3000 to 30000 | 300 to 3000 | 300 to 3000 | Cc1noc(C)c1Nc1cc(N)c2nc(C)n(Cc3ccccc3)c2c1 [compound 142, 1-benzyl-N6-(3,5-dimethylisoxazol-4-yl)-2-methyl-1H-benzo[d]imidazole-4,6-diamine] | 
300 to 3000 | ≤ 300 | 300 to 3000 | CCNc1nc2c(N)cc(-c3c(C)noc3C)cc2n1CC1CC1 [compound 160, 1-(cyclopropylmethyl)-6-(3,5-dimethylisoxazol-4-yl)-N2-ethyl-1H-benzo[d]imidazole-2,4-diamine] | 
300 to 3000 | ≤ 300 | 300 to 3000 | Cc1noc(C)c1-c1cc(F)c2[nH]c(=O)n(Cc3ccccc3)c2c1 [compound 163, 1-benzyl-6-(3,5-dimethylisoxazol-4-yl)-4-fluoro-1H-benzo[d]imidazol-2(3H)-one] | 
 | 300 to 3000 |  | Cc1noc(C)c1-c1cc(Br)c2nc(C)n(C(=O)c3ccccc3)c2c1 [compound 200, (4-bromo-6-(3,5-dimethylisoxazol-4-yl)-2-methyl-1H-benzo[d]imidazol-1-yl)(phenyl)methanone] | Not active
